Assay results from ChEMBL document CHEMBL4828718, “Synthesis and Antifungal Activity Evaluation of Phloeodictine Analogues” (J Nat Prod, 2021).
pIC50: −log10 of the molar value. ≈ marks a conversion by molar mass, not a printed value. Calls of active or inactive are those of the source. The calls are words filed in the database; no cut-off is given here.

Experiments:
[1] = system: Candida albicans; assay: Antifungal activity against Candida albicans ATCC 90028 assessed as fungal growth inhibition incubated for 18 to 24 hrs by alamar blue assay; assay type: functional
[2] = system: Aspergillus fumigatus; assay: Antifungal activity against Aspergillus fumigatus ATCC 90906 assessed as fungal growth inhibition incubated for 72 hrs by alamar blue assay; assay type: functional
[3] = system: Candida albicans; assay: Fungicidal activity against Candida albicans ATCC 90028 assessed as fungal growth inhibition incubated for 18 to 24 hrs by alamar blue assay; assay type: functional
[4] = system: Aspergillus fumigatus; assay: Fungicidal activity against Aspergillus fumigatus ATCC 90906 assessed as fungal growth inhibition incubated for 72 hrs by alamar blue assay; assay type: functional
[5] = system: Cryptococcus neoformans; assay: Fungicidal activity against Cryptococcus neoformans ATCC 90113 assessed as fungal growth inhibition incubated for 72 hrs by alamar blue assay; assay type: functional; conditions: Cryptococcus neoformans, ATCC 90113, 72 h, read-out: MFC
[6] = system: Vero; assay: Cytotoxicity against African green monkey Vero cells assessed as reduction in cell viability incubated for 48 hrs by neutral red dye based assay; parameters: species or system Chlorocebus sabaeus; conditions: Chlorocebus sabaeus, Vero, 48 h
[7] = system: Cryptococcus neoformans; assay: Antifungal activity against Cryptococcus neoformans ATCC 90113 assessed as fungal growth inhibition incubated for 72 hrs by alamar blue assay; assay type: functional; conditions: Cryptococcus neoformans, ATCC 90113, 72 h, read-out: MIC
[8] = system: Nakaseomyces glabratus; assay: Fungicidal activity against Candida glabrata ATCC 90030 assessed as fungal growth inhibition incubated for 18 to 24 hrs by alamar blue assay; assay type: functional
[9] = system: Pichia kudriavzevii; assay: Fungicidal activity against Candida krusei ATCC 6258 assessed as fungal growth inhibition incubated for 18 to 24 hrs by alamar blue assay; assay type: functional
[10] = system: Nakaseomyces glabratus; assay: Antifungal activity against Candida glabrata ATCC 90030 assessed as fungal growth inhibition incubated for 18 to 24 hrs by alamar blue assay; assay type: functional
[11] = system: Pichia kudriavzevii; assay: Antifungal activity against Candida krusei ATCC 6258 assessed as fungal growth inhibition incubated for 18 to 24 hrs by alamar blue assay; assay type: functional
[12] = Candida albicans, ATCC 90028, time 18-24 hrs, read-out: MIC
[13] = Aspergillus fumigatus, ATCC 90906, 72 h, read-out: MIC
[14] = Candida albicans, ATCC 90028, time 18-24 hrs, read-out: MFC
[15] = Aspergillus fumigatus, ATCC 90906, 72 h, read-out: MFC
[16] = Nakaseomyces glabratus, ATCC 90030, time 18-24 hrs, read-out: MFC
[17] = Pichia kudriavzevii, ATCC 6258, time 18-24 hrs, read-out: MFC
[18] = Nakaseomyces glabratus, ATCC 90030, time 18-24 hrs, read-out: MIC
[19] = Pichia kudriavzevii, ATCC 6258, time 18-24 hrs, read-out: MIC

SMILES	MIC [1, 12] [µM]	MIC [2, 13] [µM]	MFC [3, 14] [µM]	MFC [4, 15] [µM]	MFC [5] [µM]	pIC50 [6]	MIC [7] [µM]	MFC [8, 16] [µM]	MFC [9, 17] [µM]	MIC [10, 18] [µM]	MIC [11, 19] [µM]	MIC ([1]; time 18-24 hrs)	MIC [2]	MFC ([3]; time 18-24 hrs)	MFC [4]	MFC ([8]; time 18-24 hrs)	MFC ([9]; time 18-24 hrs)	MIC ([10]; time 18-24 hrs)	MIC ([11]; time 18-24 hrs)
CCCCCCCCCCCCCCc1c(C)c(C)cn1CCCNC	12 (≈ 4.35 µg/mL)	21 (≈ 7.62 µg/mL)	12 (≈ 4.35 µg/mL)	23 (≈ 8.34 µg/mL)	6.9 (≈ 2.5 µg/mL)	4.46	3.3 (≈ 1.2 µg/mL)	6.9 (≈ 2.5 µg/mL)	6.9 (≈ 2.5 µg/mL)	6.9 (≈ 2.5 µg/mL)	6.9 (≈ 2.5 µg/mL)	–	–	–	–	–	–	–	–
CCCCCCCCCCCCCCC1(O)C(C)=C(C)C2=[N+](Cc3ccc(OC)cc3)CCCN21 (centres undefined)	3.7	3.7	3.7	5.1	1.4	4.62	1.1	3	2.7	3	1.8	–	–	–	–	–	–	–	–
CCCCCCCCCCCCCCC1(O)C(C)=C(C)C2=[N+](Cc3ccc(C(F)(F)F)cc3)CCCN21 (centres undefined)	5.5	17	7	19	3.5	< 4.38	1	2	2	2	2	–	–	–	–	–	–	–	–
CCCCCCCCCCCCCCC1(O)C(C)=C(C)C2=[N+](CC(=O)OCC)CCCN21 (centres undefined)	9.4	9.4	17	9.4	2.8	4.36	1.9	11	5.5	6.2	5.5	–	–	–	–	–	–	–	–
CCCCCCCCCCCCCCC1(O)C(C)=C(C)C2=[N+](CC#N)CCCN21 (centres undefined)	10	6	10	6	1	< 4.28	1	8.7	4.4	6	3.5	–	–	–	–	–	–	–	–
CCCCCCCCCCCCCCC1(O)C(C)=C(C)C2=[N+](Cc3ccc(F)cc3)CCCN21 (centres undefined)	6.7	3.1	6.7	3.1	1.5	4.48	1.5	2.2	2.2	2.2	2.2	–	–	–	–	–	–	–	–
CCCCCCCCCCCCCCC1(O)C(C)=C(C)C2=[N+](Cc3ccc(Br)cc3)CCCN21 (centres undefined)	5.4	5.4	5.4	8.2	6	4.46	3.4	2	2	2	2	–	–	–	–	–	–	–	–
CCCCCCCCCCCCCCC1(O)C(C)=C(C)C2=[N+](Cc3cccc(C(F)(F)F)c3)CCCN21 (centres undefined)	4.2	4.2	4.2	6.3	1.7	4.57	1.3	2	2.8	2	2.8	–	–	–	–	–	–	–	–
C=CC[N+]1=C2C(C)=C(C)C(O)(CCCCCCCCCCCCCC)N2CCC1 (centres undefined)	3.5	5.2	4.3	17	4.1	4.49	1	5.2	2.5	3.5	2.5	–	–	–	–	–	–	–	–
C[C@@H]1[C@H](O)[C@@H](C)/C=C/C=C/C=C/C=C/C=C/C=C/C=C/[C@H](O[C@@H]2O[C@H](C)[C@@H](O)[C@H](N)[C@@H]2O)C[C@@H]2O[C@](O)(C[C@@H](O)C[C@@H](O)[C@H](O)CC[C@@H](O)C[C@@H](O)CC(=O)O[C@H]1C)C[C@H](O)[C@H]2C(=O)O [AMPHOTERICIN B]	0.77 (≈ 0.712 µg/mL)	2.3 (≈ 2.13 µg/mL)	0.97 (≈ 0.896 µg/mL)	4 (≈ 3.7 µg/mL)	0.65 (≈ 0.601 µg/mL)	5.17	0.65 (≈ 0.601 µg/mL)	0.65 (≈ 0.601 µg/mL)	1.3 (≈ 1.2 µg/mL)	0.65 (≈ 0.601 µg/mL)	1.3 (≈ 1.2 µg/mL)	–	–	–	–	–	–	–	–
CCCCCCCCCCCCCCC1(O)C(C)=C(C)C2=[N+](C)c3ccccc3CN21 (centres undefined)	–	–	–	–	2.4	< 4.35	2.4	–	–	–	–	inactive	inactive	inactive	inactive	inactive	inactive	inactive	inactive
CCCCCCCCCCCCCCC1(O)c2ccccc2C2=[N+](C)CCCN21 (centres undefined)	4.3	35	4.3	35	6.4	4.38	6.4	16	13	13	13	–	–	–	–	–	–	–	–
CCCCCCCCCCCCCCC1(O)C(C)=C(C)C2=[N+](Cc3ccccc3)CCCN21 (centres undefined)	3.9	4.7	3.9	4.7	1.5	4.60	1.5	2.2	2.2	2.2	2.2	–	–	–	–	–	–	–	–
CCCCCCCCCCCCCCC1(O)C(C)=C(C)C2=[N+](C)CCCN21 (centres undefined)	5	5	6.5	5	2.4	4.41	0.99	5	2	4.2	2	–	–	–	–	–	–	–	–
